Assay results from patent publication US12428394B2, “2,4-disubstituted pyrimidine derivative, preparation method therefor and use thereof” (CHENGDU ZENITAR BIOMEDICAL TECHNOLOGY CO., LTD., priority 2019, dated 2025).
Like-named read-outs stand apart in the source and are kept apart here.

Assays:
[1] = test system: SET-2 cells (JAK2 V617F); test: Inhibition of cell proliferation by MTT experiment, SET-2; assay type: cell-based; settings: MTT, 72 h, read-out: IC50 value on cell proliferation inhibition, SET-2 (V617F)
How it was run: (§1)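 MTT assay in MV4-11, MOLM-13 (FLT3-ITD) and SET-2 (JAK2 V617F) cells at 10,000–15,000 cells/well in IMDM with 10% FBS. Cells are exposed to compound for 72 h at 37 °C, then to MTT for 1–3 h. IC50 is fitted from inhibition rates across concentrations.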

[2] = biological target: T1, FLT3 (Homo sapiens, UniProt P36888); test: In vitro kinase activity experiment, FLT3; assay type: biochemical; settings: inhibition rate of enzyme at 500 nM, measured by Eurofins; for inhibition at 0.5 µM: 40 min, read-out: Kinase activity @ 500 nM (%) FLT3
T1 construct: purchased Eurofins
T1 sequence (P36888 27-993): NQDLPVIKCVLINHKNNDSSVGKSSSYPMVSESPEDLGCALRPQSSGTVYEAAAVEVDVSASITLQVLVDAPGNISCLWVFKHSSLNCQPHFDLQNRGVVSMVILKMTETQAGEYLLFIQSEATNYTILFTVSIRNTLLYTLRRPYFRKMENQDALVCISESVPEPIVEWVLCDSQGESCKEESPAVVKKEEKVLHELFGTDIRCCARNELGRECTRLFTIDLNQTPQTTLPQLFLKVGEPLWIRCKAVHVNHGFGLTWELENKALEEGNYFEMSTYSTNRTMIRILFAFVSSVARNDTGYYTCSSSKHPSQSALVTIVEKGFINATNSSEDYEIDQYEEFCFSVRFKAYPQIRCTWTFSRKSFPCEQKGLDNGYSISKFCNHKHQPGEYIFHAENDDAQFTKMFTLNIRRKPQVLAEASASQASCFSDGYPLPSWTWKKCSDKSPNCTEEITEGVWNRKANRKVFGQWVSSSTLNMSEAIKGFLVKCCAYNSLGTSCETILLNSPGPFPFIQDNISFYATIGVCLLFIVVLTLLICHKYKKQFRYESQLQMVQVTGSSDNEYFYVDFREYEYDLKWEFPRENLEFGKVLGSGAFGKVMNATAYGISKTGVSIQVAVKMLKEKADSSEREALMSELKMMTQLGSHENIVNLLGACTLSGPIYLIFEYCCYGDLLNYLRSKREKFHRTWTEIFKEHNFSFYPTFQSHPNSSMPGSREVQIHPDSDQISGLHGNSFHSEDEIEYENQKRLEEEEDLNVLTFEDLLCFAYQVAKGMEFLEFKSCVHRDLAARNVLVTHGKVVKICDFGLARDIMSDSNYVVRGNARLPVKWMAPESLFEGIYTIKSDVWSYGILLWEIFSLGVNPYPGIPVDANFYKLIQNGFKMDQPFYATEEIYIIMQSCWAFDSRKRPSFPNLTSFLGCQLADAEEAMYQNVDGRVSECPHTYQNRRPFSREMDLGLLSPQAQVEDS
How it was run: (§2)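 Radiometric filter-binding assay: kinase, its substrate and compound in 8 mM MOPS pH 7.0, 0.2 mM EDTA, 10 mM MnCl2, with 10 mM magnesium acetate and γ33P-ATP; MgATP started the reaction, 40 min at room temperature. Stopped with 3% phosphate, spotted on Filtermat A, washed, scintillation counted.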

[3] = test system: MV4-11 cells (FLT3-ITD+/+); test: Inhibition of cell proliferation by MTT experiment, MV4-11; assay type: cell-based, human; settings: MTT, 72 h, read-out: IC50 value on cell proliferation inhibition, MV4-11 FLT3-ITD+/+
How it was run: as §1

[4] = biological target: T2, JAK2 (Homo sapiens, UniProt O60674); test: In vitro kinase activity experiment, JAK2; assay type: biochemical; settings: inhibition rate of enzyme at 500 nM; measured by Eurofins
T2 construct: purchased Eurofins
How it was run: as §2

[5] = test system: MOLM-13 cells (FLT3-ITD-/+); test: Inhibition of cell proliferation by MTT experiment, MOLM-13; assay type: cell-based, human; settings: MTT, 72 h, read-out: IC50 value on cell proliferation inhibition, MOLM-13 FLT3-ITD-/+
How it was run: as §1

T2 sequence (O60674 whole entry): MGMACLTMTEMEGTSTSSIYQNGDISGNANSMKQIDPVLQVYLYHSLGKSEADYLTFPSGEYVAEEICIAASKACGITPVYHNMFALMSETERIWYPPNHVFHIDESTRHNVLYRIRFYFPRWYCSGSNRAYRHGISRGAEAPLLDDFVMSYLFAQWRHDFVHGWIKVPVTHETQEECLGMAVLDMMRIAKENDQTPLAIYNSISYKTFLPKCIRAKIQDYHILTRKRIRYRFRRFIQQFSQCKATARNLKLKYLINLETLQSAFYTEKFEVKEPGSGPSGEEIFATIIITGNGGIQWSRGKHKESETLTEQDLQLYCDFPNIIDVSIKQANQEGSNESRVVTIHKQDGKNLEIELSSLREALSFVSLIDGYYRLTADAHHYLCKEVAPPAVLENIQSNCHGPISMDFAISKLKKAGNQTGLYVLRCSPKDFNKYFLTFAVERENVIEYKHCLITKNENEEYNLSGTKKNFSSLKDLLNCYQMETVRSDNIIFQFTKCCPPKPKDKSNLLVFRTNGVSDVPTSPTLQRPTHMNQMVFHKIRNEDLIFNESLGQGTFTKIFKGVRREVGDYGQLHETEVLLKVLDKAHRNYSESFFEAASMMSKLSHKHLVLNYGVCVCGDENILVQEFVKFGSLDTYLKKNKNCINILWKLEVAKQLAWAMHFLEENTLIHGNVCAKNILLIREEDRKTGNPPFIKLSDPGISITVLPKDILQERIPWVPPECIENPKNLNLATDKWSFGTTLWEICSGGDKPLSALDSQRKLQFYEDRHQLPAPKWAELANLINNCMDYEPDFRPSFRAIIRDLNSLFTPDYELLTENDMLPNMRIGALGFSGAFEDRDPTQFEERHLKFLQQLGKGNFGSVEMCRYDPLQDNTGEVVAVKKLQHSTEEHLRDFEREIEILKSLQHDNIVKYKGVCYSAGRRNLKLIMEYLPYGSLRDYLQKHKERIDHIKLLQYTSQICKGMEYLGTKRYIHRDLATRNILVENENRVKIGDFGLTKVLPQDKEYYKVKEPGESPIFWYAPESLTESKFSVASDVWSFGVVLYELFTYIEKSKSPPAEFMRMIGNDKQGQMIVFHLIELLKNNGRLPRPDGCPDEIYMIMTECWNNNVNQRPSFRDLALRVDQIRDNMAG

SMILES	inhibition at 0.5 µM [2] [%]	IC50 ([3]; Homo sapiens, MV4-11) [nM]	Kinase activity @ 500 nM (%) JAK2 [4] [%]	IC50 ([5]; Homo sapiens, MOLM-13) [nM]	IC50 ([1]; Homo sapiens, SET-2) [nM]	IC50 [1] [nM]	Kinase activity @ 500 nM (%) FLT3 [2] [%]	IC50 [3] [nM]	IC50 [5] [nM]
CCCCN(C)C1CCN(c2ccc(Nc3ncc(C)c(-c4cnn(C(C)C)c4)n3)cc2F)CC1 [CLJ-50, 5-methyl-N-(3-fluoro-4-(4-N-butyl-4-N-methylaminopiperidine-1-yl)phenyl)-4-(1-isopropyl-1H-pyrazole-4-yl) pyrimidine-2-amine]	90	100 to 1000	89	> 1000	> 1000				
CCCCCCN(C)C1CCN(c2ccc(Nc3ncc(C)c(-c4cnn(C(C)C)c4)n3)cc2F)CC1 [CLJ-51, 5-methyl-N-(3-fluoro-4-(4-N-hexyl-4-N-methylaminopiperidine-1-yl)phenyl)-4-(1-isopropyl-1H-pyrazole-4-yl) pyrimidine-2-amine]	93	100 to 1000	95	1 to 10	100 to 1000				
Cc1cnc(Nc2ccc(N3CCC(N(C)CCN4CCOCC4)CC3)c(F)c2)nc1-c1cnn(C(C)C)c1 [CLJ-54, N-(3-fluoro-4-(4-(methyl (2-morpholinoethyl)amino)piperidine-1-yl)phenyl)-4-(1-isopropyl-1H-pyrazole-4-yl)-5-methylpyrimidine-2-amine]	23	> 1000	17	> 1000	> 1000				
Cc1cnc(Nc2ccc(N3CCC(N(C)CCN4CCCCC4)CC3)c(F)c2)nc1-c1cnn(C(C)C)c1 [CLJ-55, N-(3-fluoro-4-(4-(methyl (1-piperidylethyl)amino)piperidine-1-yl)phenyl)-4-(1-isopropyl-1H-pyrazole-4-yl)-5-methylpyrimidine-2-amine]	20	> 1000	25	> 1000	> 1000				
Cc1cnc(Nc2ccc(N3CCC(N(C)CCN4CCN(C)CC4)CC3)c(F)c2)nc1-c1cnn(C(C)C)c1 [CLJ-56, N-(3-fluoro-4-(4-(methyl (4-methyl-1-piperazine ethyl)amino)piperidine-1-yl)phenyl)-4-(1-isopropyl-1H-pyrazole-4-yl)-5-methylpyrimidine-2-amine]	96	10 to 100	99	10 to 100	100 to 1000				
Cc1cnc(Nc2ccc(N3CCC[C@@H](N(C)C(=O)CCC#N)C3)c(F)c2)nc1-c1cnn(C(C)C)c1 [CLJ-65, (R)-3-cyano-N-(1-(2-fluoro-4-((4-(1-isopropyl-1H-pyrazole-4-yl)-5-methylpyrimidine-2-yl)amino)phenyl)piperidine-3-yl)-N-methylpropionamide]	89	10 to 100	90	10 to 100	100 to 1000				
Cc1cnc(Nc2ccc(N3CCC4(CC3)CNC4)c(F)c2)nc1-c1cnn(C(C)C)c1 [CLJ-66, N-(3-fluoro-4-(2,7-diazaspiro[3.5]nonane-7-yl)phenyl)-4-(1-isopropyl-1H-pyrazole-4-yl)-5-methylpyrimidine-2-amine]	94	10 to 100	93	100 to 1000	100 to 1000				
Cc1cnc(Nc2ccc(N3CCC4(CC3)CN(CCO)C4)c(F)c2)nc1-c1cnn(C(C)C)c1 [CLJ-67, N-(3-fluoro-4-(2,7-diazaspiro[3.5]nonane-2-hydroxyethyl-7-yl)phenyl)-4-(1-isopropyl-1H-pyrazole-4-yl)-5-methylpyrimidine-2-amine]			96			100 to 1000	98	10 to 100	100 to 1000
CCCC(O)CN1CC2(CCN(c3ccc(Nc4ncc(C)c(-c5cnn(C(C)C)c5)n4)cc3F)CC2)C1 (centres unmarked) [CLJ-70, N-(3-fluoro-4-(2,7-diazaspiro [3.5]nonane-2-hydroxypentyl-7-yl)phenyl)-4-(1-isopropyl-1H-pyrazol-4-yl)-5-methylpyrimidine-2-amine]			90			100 to 1000	91	10 to 100	10 to 100

Continued, in another order:

inhibition at 0.5 µM [2] [%]	IC50 ([3]; Homo sapiens, MV4-11) [nM]	Kinase activity @ 500 nM (%) JAK2 [4] [%]	IC50 ([5]; Homo sapiens, MOLM-13) [nM]	SMILES	IC50 ([1]; Homo sapiens, SET-2) [nM]	IC50 [1] [nM]	Kinase activity @ 500 nM (%) FLT3 [2] [%]	IC50 [3] [nM]	IC50 [5] [nM]
98	1 to 10	100	10 to 100	Cc1cnc(Nc2ccc(N3CCC(N(C)CC4CCCO4)CC3)c(F)c2)nc1-c1cnn(C(C)C)c1 (centres unmarked) [CLJ-53, N-(3-fluoro-4-(4-(methyl((tetrahydrofuran-2-yl)methyl)amino)piperidine-1-yl)phenyl)-4-(1-isopropyl-1H-pyrazole-4-yl)-5-methylpyrimidine-2-amine]	100 to 1000				
96	1 to 10	97	10 to 100	CCCN1CCN(CCN(C)C2CCN(c3ccc(Nc4ncc(C)c(-c5cnn(C(C)C)c5)n4)cc3F)CC2)CC1 [CLJ-57, N-(3-fluoro-4-(4-(methyl (4-propyl-1-piperazine ethyl)amino)piperidine-1-yl)phenyl)-4-(1-isopropyl-1H-pyrazole-4-yl)-5-methylpyrimidine-2-amine]	100 to 1000				
96	1 to 10	95	10 to 100	Cc1cnc(Nc2ccc(N3CCC(N(C)CCN4CCN(C(C)C)CC4)CC3)c(F)c2)nc1-c1cnn(C(C)C)c1 [CLJ-58, N-(3-fluoro-4-(4-(methyl (4-isopropyl-1-piperazine ethyl)amino)piperidine-1-yl)phenyl)-4-(1-isopropyl-1H-pyrazole-4-yl)-5-methylpyrimidine-2-amine]	100 to 1000				
97	1 to 10	98	100 to 1000	CCN(CCN1CCOCC1)C1CCN(c2ccc(Nc3ncc(C)c(-c4cnn(C(C)C)c4)n3)cc2F)CC1 [CLJ-59, N-(3-fluoro-4-(4-(ethyl(morpholinoethyl)amino)piperidine-1-yl)phenyl)-4-(1-isopropyl-1H-pyrazole-4-yl)-5-methylpyrimidine-2-amine]	100 to 1000				
97	1 to 10	100	10 to 100	CCCN(CCN1CCOCC1)C1CCN(c2ccc(Nc3ncc(C)c(-c4cnn(C(C)C)c4)n3)cc2F)CC1 [CLJ-60, N-(3-fluoro-4-(4-(propyl(morpholinoethyl)amino)piperidine-1-yl)phenyl)-4-(1-isopropyl-1H-pyrazole-4-yl)-5-methylpyrimidine-2-amine]	100 to 1000				
98	1 to 10	99	10 to 100	Cc1cnc(Nc2ccc(N3CCC(CN(C)CCN4CCOCC4)CC3)c(F)c2)nc1-c1cnn(C(C)C)c1 [CLJ-61, N-(3-fluoro-4-(4-(methyl(morpholinoethyl)aminomethyl)piperidine-1-yl)phenyl)-4-(1-isopropyl-1H-pyrazole-4-yl)-5-methylpyrimidine-2-amine]	100 to 1000				
93	1 to 10	91	10 to 100	CCN1CC2(CCN(c3ccc(Nc4ncc(C)c(-c5cnn(C(C)C)c5)n4)cc3F)CC2)C1 [CLJ-71, N-(3-fluoro-4-(2,7-diazaspiro [3.5]nonane-2-ethyl-7-yl)phenyl)-4-(1-isopropyl-1H-pyrazole-4-yl)-5-methylpyrimidine-2-amine]	100 to 1000				
